Laboratory results published in US7655600B2, “1-(azolin-2-yl)amino-1,2-diphenylethane compounds for combating insects, arachnids and nematodes” (BASF Aktiengesellschaft, priority 2003, dated 2010).

System: Spodoptera eridania
Assay: Southern armyworm (Spodoptera eridania), 2nd instar larvae, on dipped Sieva lima bean foliage
Assay type: in vivo
Conditions: 300 ppm, observation at 5 days
Procedure: The active compounds were formulated • a. for testing the activity against Aphis gossypii, Myzus persicae, and Aphis fabae, as 50:50 acetone:water solutions amended with 100 ppm Kinetic® (surfactant), • b. for testing the activity against Spodoptera eridania as a 10.000 ppm solution in a mixture of 35% acetone and water, which was diluted with water, if needed,
After the experiments were completed, in each case the lowest concentration was determined at which the compound still caused an 75 to 100% inhibition or mortality in comparison with untreated controls (limit or minimal concentration).
Foliage of two Sieva lima beans plants at the first expanded true-leaf stage that are contained within a single 3.8 cm square plastic pot are dipped into the test solution with agitation for 3 seconds and allowed to dry in a hood. The pot is then placed in a 25.4 cm plastic zipper top bag and infested with ten 2nd instar caterpillars. At 5 days, observations are made of mortality, reduced feeding, or any interference with normal molting.

## Cc1cccc(CC(NC2=NCC(C)S2)c2ccccc2)c1 (stereo not shown) [Example 16]
  mortality in comparison with untreated controls: over 50%
